Source: patent publication US10280198B2, “Therapeutic agents for reducing parathyroid hormone levels” (KAI PHARMACEUTICALS, INC., priority 2009, dated 2019)
Read-outs that look alike come from different tables or passages of the source. Square brackets hold non-standard residues; d marks the D form. Peptide text beside a SMILES is read from it. dNle = CCCC[C@@H](N)C(=O)O; dNva = CCC[C@@H](N)C(=O)O

Columns and labels:
[1] = target: T1, human calcium-sensing receptor (CaSR) (Homo sapiens, UniProt P41180); test: In vitro cell assay in HEK-293 expressing the human calcium-sensing receptor (IP1 production); format: cell-based; conditions: for EC50: Table 5, IP1 production in HEK293 cells expressing human CaSR, eight concentrations in duplicate, read-out: EC50 in CaSR in vitro assay
T1 construct: expressed in transfected cells; host or cells: HEK 293T cells, transiently transfected (lipofectamine 2000); in some cases HEK293 cells stably transfected
T1 sequence (P41180 20-1078): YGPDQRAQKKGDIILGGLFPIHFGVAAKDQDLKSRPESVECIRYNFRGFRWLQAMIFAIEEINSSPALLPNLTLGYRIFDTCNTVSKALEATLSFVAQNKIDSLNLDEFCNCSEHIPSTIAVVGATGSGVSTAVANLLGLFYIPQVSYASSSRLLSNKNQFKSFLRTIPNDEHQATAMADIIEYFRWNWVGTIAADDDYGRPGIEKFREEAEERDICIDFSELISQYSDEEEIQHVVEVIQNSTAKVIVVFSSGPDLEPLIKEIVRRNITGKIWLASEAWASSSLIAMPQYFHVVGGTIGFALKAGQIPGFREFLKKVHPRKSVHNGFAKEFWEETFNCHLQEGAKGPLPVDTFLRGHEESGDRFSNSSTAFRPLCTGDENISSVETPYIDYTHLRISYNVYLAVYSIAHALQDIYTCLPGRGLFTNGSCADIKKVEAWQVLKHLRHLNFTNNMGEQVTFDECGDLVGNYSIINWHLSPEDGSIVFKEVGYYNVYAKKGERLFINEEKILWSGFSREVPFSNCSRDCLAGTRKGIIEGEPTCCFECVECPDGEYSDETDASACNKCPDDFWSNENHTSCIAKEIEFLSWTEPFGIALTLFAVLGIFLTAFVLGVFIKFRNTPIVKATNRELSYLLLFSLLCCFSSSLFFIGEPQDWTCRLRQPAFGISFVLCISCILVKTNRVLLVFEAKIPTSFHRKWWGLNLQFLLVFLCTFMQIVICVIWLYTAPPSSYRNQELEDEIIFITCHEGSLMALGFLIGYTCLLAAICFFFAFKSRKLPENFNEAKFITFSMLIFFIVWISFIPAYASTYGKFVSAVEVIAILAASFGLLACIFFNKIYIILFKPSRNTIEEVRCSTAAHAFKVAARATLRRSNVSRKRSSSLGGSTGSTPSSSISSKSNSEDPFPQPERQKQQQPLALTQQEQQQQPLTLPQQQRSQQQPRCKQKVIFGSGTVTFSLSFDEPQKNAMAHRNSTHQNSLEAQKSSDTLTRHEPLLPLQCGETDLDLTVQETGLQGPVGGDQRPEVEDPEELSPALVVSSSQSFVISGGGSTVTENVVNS
Method: The activity of a variety of peptides and conjugates was tested against the human CaSR. These studies were conducted by measuring IP1 production in HEK293 cells that express the human CaSR. Each peptide was tested in eight different concentrations, in duplicates, to establish a dose response curve. Curve fitting was performed using GraphPad Prism. In Table 5, and throughout the specification, residues provided in capital letters are L-amino acids, while lower case letters indicate D-amino acids. “Ac” indicates an acetyl capping group, “NH2” indicates an amide capping group, “Ac-bAla” is an acetylated beta-alanine, “GSH” indicates reduced glutathione, “GS” indicates oxidized glutathione, “PEG” refers to polyethylene glycol, “PEG2” and “PEGS” refer to polyethylene glycol moieties of 2 kDa and 5 kDa, respectively, and “Mpa” refers to mercaptopropionic acid.
The day after, these cells were transfected with human CaSR receptor using lipofectamine 2000 transfection reagent 24 hrs post transfection, cells were seeded in 384 well plates at 8,000 cells/well. […] In some cases, EC50 values were determined by measuring inositol monophosphate production in the HEK293 cells, stably transfected with the human calcium-sensing receptor (see Table 1).
Cells were incubated with compounds at various concentrations (1 mM or 300 μM as the highest and further ½ log serial dilutions) at 37° C. for 1.5 hrs before reaction termination. […] In brief, incubation with the compound was terminated by sequentially adding D2 labeled-IP1 and cryptate-labeled anti-IP1 in lysis buffer and further incubating at room temperature for 60 minutes. […] Non-transfected 293 cells were used as negative control.
IP1 concentrations were calculated from standard curves (generated with Graph Pad Prism ver. 4) using known concentrations of IP1 standards.

[2] = test system: rat peritoneal mast cells; test: In vitro histamine induction in rat peritoneal mast cells; format: cell-based
Method: To further evaluate the relationship between compound structure and histamine release, a series of compounds was prepared and assessed for their ability to trigger induction of histamine in an in vitro assay using rat peritoneal mast cells. In this assay, compounds are incubated at 10 μM for 15 minutes at 37° C. with cells isolated from peritoneal lavage of SD rats. Following incubation, cell medium is collected and histamine is determined.
Accordingly, and as can be appreciated in view of the PTH data and the histamine data described hereinabove, in one embodiment, a compound that has activity to decrease PTH level in a subject in the absence of a histamine response is contemplated. In certain embodiments, absence of a histamine response intends a dose of the compound that produces a less than 10-fold, more preferably 8-fold, still more preferably 5-fold, and even still more preferably 3-fold, increase in histamine, measured in vitro in an assay as described herein, where the fold change is determined based on histamine levels before incubation with the compound and after 15 minutes incubation with compound. In a specific embodiment, the histamine response is determined in an in vitro assay using rat peritoneal mast cells isolated from peritoneal lavage of normal Sprague Dawley rats, and where the fold change is determined based on histamine levels before incubation with the compound and after 15 minutes incubation with compound. In the studies conducted herein, the in vitro evaluation of histamine release was performed using isolated rat peritoneal mast cells isolated by peritoneal lavage using cold HBSS+25 mM HEPES pH 7.4 containing heparin (5 u/mL). Cells were washed twice in stimulation buffer (HBSS+25 mM HEPES pH 7.4) and incubated with 10 μM of compound in stimulation buffer (HBSS+25 mM HEPES pH 7.4) for 15 minutes in a 96-well plate ([…]) at 37° C. Cell supernatant was analyzed for histamine using histamine EIA kit (Cayman #589651).
For in vitro evaluation of histamine release, isolated rat peritoneal mast cells were isolated by performing peritoneal lavage using cold HBSS+25 mM HEPES pH 7.4 containing heparin (5 u/mL). Cells were washed twice in stimulation buffer (HBSS+25 mM HEPES pH 7.4) and incubated with 10 μM of compound in stimulation buffer (HBSS+25 mM HEPES pH 7.4) for 15 minutes in a 96-well plate (10^6/well) at 37° C. Cell supernatant was analyzed for histamine using histamine EIA kit (Cayman #589651).

plasma PTH = test: In vivo PTH lowering after IV bolus in isoflurane-anesthetized normal Sprague Dawley rats; set-up: species or system rat; conditions: Table 7; normal rats, AUC 1-4 h
Method: The peptides were administered intravenously at a dose of 0.5 mg/kg into isoflurane-anesthetized normal Sprague Dawley rats. A control group of rats was treated with saline. Blood was drawn prior to dosing and every hour for 4 hours. Rats were maintained under isoflurane anesthesia for the entire study. […] Percent PTH reduction was calculated according to the following formula: AUCcmpd treated/AUCsaline control*100.
An intravenous (IV) bolus of saline was used as a control. Plasma (K2EDTA) PTH levels were assessed prior to dosing and 1, 2, 3 and 4 hours after dosing. Rats were maintained under isoflurane anesthesia for the entire study. […] In FIG. 2B, PTH is shown as percent of the baseline pre-dose value.
A series of compounds having an L-amino acid residue substituted for a D-amino acid residue were prepared. The compounds were administered as an IV bolus to normal Sprague Dawley rats at a dose of 0.5 mg/kg. An intravenous (IV) bolus of saline was used as a control. […] Rats were maintained under isoflurane anesthesia for the entire study.

Row | SMILES | Histamine in vitro Fold change of non-treated at 10 uM [2] [fold] | 0.5 mg/kg IV bolus % PTH AUC of saline control (plasma PTH) [%] | other results
1 | CC(=O)N[C@H](CS)C(=O)N[C@H](CCCNC(=N)N)C(=O)N[C@H](CCCNC(=N)N)C(=O)N[C@H](CCCNC(=N)N)C(=O)N[C@H](CCCNC(=N)N)C(=O)N[C@H](CCCNC(=N)N)C(=O)N[C@H](CCCNC(=N)N)C(=O)N[C@H](CCCNC(=N)N)C(N)=O [SEQ ID NO: 7, Ac-crrrrrrr-NH2] (Ac-[dC][dR][dR][dR][dR][dR][dR][dR]-NH2) |  |  | EC50 [1]: 0.6 µM
2 | CC(=O)N[C@@H](CS)C(=O)N[C@H](C)C(=O)N[C@@H](CCCNC(=N)N)C(=O)N[C@H](CCCNC(=N)N)C(=O)N[C@@H](CCCNC(=N)N)C(=O)N[C@H](C)C(=O)N[C@@H](CCCNC(=N)N)C(N)=O [SEQ ID NO: 44, Ac-CaRrRaR-NH2] |  |  | fold decrease in potency relative to Ac-carrrar-NH2 (SEQ ID NO:26) ([1]; human CaSR, HEK293): < 4 fold
3 | CC(=O)N[C@@H](CS)C(=O)N[C@@H](Cc1ccc(O)cc1)C(=O)NCC(=O)N[C@@H](CCCNC(=N)N)C(=O)N[C@@H](CCCCN)C(=O)N[C@@H](CCCCN)C(=O)N[C@@H](CCCNC(=N)N)C(=O)N[C@@H](CCCNC(=N)N)C(=O)N[C@@H](CCC(N)=O)C(=O)N[C@@H](CCCNC(=N)N)C(=O)N[C@@H](CCCNC(=N)N)C(=O)N[C@@H](CCCNC(=N)N)C(N)=O [SEQ ID NO: 47] |  |  | EC50 [1]: 4.5 µM
4 | CC(=O)N[C@@H](Cc1ccc(O)cc1)C(=O)NCC(=O)N[C@@H](CCCNC(=N)N)C(=O)N[C@@H](CCCCN)C(=O)N[C@@H](CCCCN)C(=O)N[C@@H](CCCNC(=N)N)C(=O)N[C@@H](CCCNC(=N)N)C(=O)N[C@@H](CCC(N)=O)C(=O)N[C@@H](CCCNC(=N)N)C(=O)N[C@@H](CCCNC(=N)N)C(=O)N[C@@H](CCCNC(=N)N)C(N)=O [SEQ ID NO: 48] |  |  | EC50 [1]: 16 µM
5 | CCCC[C@@H](NC(=O)[C@@H](CCCNC(=N)N)NC(=O)[C@@H](CCCNC(=N)N)NC(=O)[C@@H](CCCNC(=N)N)NC(=O)[C@@H](CCCC)NC(=O)[C@@H](CS)NC(C)=O)C(=O)N[C@H](CCCNC(=N)N)C(N)=O [SEQ ID NO: 130, Ac-c-dNle-rrr-dNle-r-NH2] (Ac-[dC][dNle][dR][dR][dR][dNle][dR]-NH2) | 9.2 | 54 | 
6 | CCC[C@@H](NC(=O)[C@@H](CCCNC(=N)N)NC(=O)[C@@H](CCCNC(=N)N)NC(=O)[C@@H](CCCNC(=N)N)NC(=O)[C@@H](CCC)NC(=O)[C@@H](CS)NC(C)=O)C(=O)N[C@H](CCCNC(=N)N)C(N)=O [SEQ ID NO: 132, Ac-c-dNva-rrr-dNva-r-NH2] (Ac-[dC][dNva][dR][dR][dR][dNva][dR]-NH2) |  | 27 | Histamine in vitro Fold change of non-treated at 10 uM ([2]; Table 9, 10 μM, 15 minutes, 37° C.): 4.1 fold

Second part, led by results:

Row | Histamine in vitro Fold change of non-treated at 10 uM [2] [fold] | SMILES | 0.5 mg/kg IV bolus % PTH AUC of saline control (plasma PTH) [%] | other results
7 | 1.8 | CCC[C@@H](NC(=O)[C@@H](CCCNC(=N)N)NC(=O)[C@@H](CCCNC(=N)N)NC(=O)[C@@H](CCCNC(=N)N)NC(=O)[C@@H](C)NC(=O)[C@@H](CS)NC(C)=O)C(=O)N[C@H](CCCNC(=N)N)C(N)=O [SEQ ID NO: 131, Ac-carrr-dNva-r-NH2] (Ac-[dC][dA][dR][dR][dR][dNva][dR]-NH2) | 54 | 
8 | 4.3 | CCCC[C@@H](NC(=O)[C@@H](CCCNC(=N)N)NC(=O)[C@@H](C)NC(=O)[C@@H](CCCNC(=N)N)NC(=O)[C@@H](CCCNC(=N)N)NC(=O)[C@@H](CS)NC(C)=O)C(=O)N[C@H](CCCNC(=N)N)C(N)=O [SEQ ID NO: 133, Ac-crrar-dNle-r-NH2] (Ac-[dC][dR][dR][dA][dR][dNle][dR]-NH2) | 26 | 
9 | 2.2 | CCCC[C@@H](NC(=O)[C@@H](CS)NC(C)=O)C(=O)N[C@H](CCCNC(=N)N)C(=O)N[C@H](CCCNC(=N)N)C(=O)N[C@H](CCCNC(=N)N)C(=O)N[C@H](C)C(=O)N[C@H](CCCNC(=N)N)C(N)=O [SEQ ID NO: 134, Ac-c-dNle-rrrar-NH2] (Ac-[dC][dNle][dR][dR][dR][dA][dR]-NH2) | 10 | 
10 | 1.1 | CCC[C@@H](NC(=O)[C@@H](CCCNC(=N)N)NC(=O)[C@@H](C)NC(=O)[C@@H](CCCNC(=N)N)NC(=O)[C@@H](CCCNC(=N)N)NC(=O)[C@@H](CS)NC(C)=O)C(=O)N[C@H](CCCNC(=N)N)C(N)=O [SEQ ID NO: 135, Ac-crrar-dNva-r-NH2] (Ac-[dC][dR][dR][dA][dR][dNva][dR]-NH2) | 8 | 
11 | 2.1 | CCC[C@@H](NC(=O)[C@@H](CS)NC(C)=O)C(=O)N[C@H](CCCNC(=N)N)C(=O)N[C@H](CCCNC(=N)N)C(=O)N[C@H](CCCNC(=N)N)C(=O)N[C@H](C)C(=O)N[C@H](CCCNC(=N)N)C(N)=O [SEQ ID NO: 136, Ac-c-dNva-rrrar-NH2] (Ac-[dC][dNva][dR][dR][dR][dA][dR]-NH2) | 7 | 
